Consider 14 compounds from patent US11932626B2, “2-pyrimidone analogs as potent antiviral agents against Alphaviruses” (priority 2020, dated 2024).

Molecules are shown by their SMILES.

In one data set the test system is VEEV (TC-83). As to the kind of experiment: microbe, parasite or virus in culture. Format: cell-based. The conditions noted are these: Venezuelan equine encephalitis virus, read-out: VEEV EC50.
A further data set is described as follows: in vitro. The conditions noted are these: human.
A further data set relates to VEEV. In words: microbe, parasite or virus in culture. The format is cell-based. The conditions noted are these: Venezuelan equine encephalitis virus, NHDF; for EC90: read-out: VEEV EC90; for log reduction at 10 µM: read-out: VEEV VTR.
A further data set deals with CHIKV. In words: CHIKV virus titer reduction (VTR) assay in NHDF cells. The format is cell-based. The conditions noted are these: Chikungunya virus; for log reduction at 10 µM: CHIKV titer reduction at 10 μM, normal human dermal fibroblasts (NHDF) cells; for EC90: effective concentration of 90% inhibition of virus in a VTR assay, NHDF cells.
Data set [1] has as its system CHIKV linked NanoLuc luciferase reporter. As to the kind of experiment: microbe, parasite or virus in culture. Format: cell-based. Particulars: Chikungunya virus, read-out: CHIKV EC50.

As to `O=C(COc1cc[nH]c(=O)n1)NC1C2CC3CC(C2)CC1C3` (centres unmarked) [compound 8, N-(Adamantan-2-Yl)-2-((2-Oxo-1,2-Dihydropyrimidin-4-Yl)Oxy)Acetamide], the EC50 (with VEEV (TC-83); in data set [1]) was over 40 µM each time. In “in vitro”, this compound returned a CC50 of over 40 µM. Also, the results for the EC90 in the data set with VEEV and in the data set on CHIKV were 0.08 µM and 0.21 µM, respectively. Also, the log reduction at 10 µM with VEEV was determined as 1.94; with CHIKV, 1.05.

As to `Cc1[nH]c(=O)nc(OCC(=O)NC23CC4CC(CC(C4)C2)C3)c1C` [compound 29, N-(Adamantan-1-Yl)-2-((5,6-Dimethyl-2-Oxo-1,2-Dihydropyrimidin-4-Yl)Oxy)Acetamide], the results for the EC50 (with VEEV (TC-83); in data set [1]) were over 40 µM and 2.29 µM, respectively. Further, the CC50 in “in vitro” was over 40 µM. Besides, the EC90 in the data set with VEEV is 2.97 µM; in the data set with CHIKV, 0.4 µM. The log reduction at 10 µM in the data set with VEEV was determined as 2.91; in the data set with CHIKV, 4.24.

On to `O=C(COc1cc(C(F)(F)F)[nH]c(=O)n1)NC12CC3CC(CC(C3)C1)C2` [compound 16, N-(Adamantan-1-Yl)-2-((2-Oxo-6-(Trifluoromethyl)-1,2-Dihydropyrimidin-4-Yl)Oxy)Acetamide], for which the EC50 (in the data set with VEEV (TC-83); in data set [1]) was over 40 µM each time. The compound also had a CC50 in the data set “in vitro” of over 40 µM. Further, the EC90 with VEEV is over 10 µM; with CHIKV it was 15 µM. Besides, the log reduction at 10 µM with VEEV was determined as 0; in the data set with CHIKV, 1.09.

On to `O=C(COc1nc(=O)[nH]c2ccccc12)NC12CC3CC(CC(C3)C1)C2` [compound 24, N-(Adamantan-1-Yl)-2-((2-Oxo-1,2-Dihydroquinazolin-4-Yl)Oxy)Acetamide], for which the results for the EC50 (in the data set on VEEV (TC-83); in data set [1]) were over 40 µM and 0.47 µM, respectively. The compound further gave a CC50 in the data set “in vitro” of over 40 µM. The results for the EC90 in the data set on VEEV and in the data set with CHIKV were 3.2 µM and 0.3 µM, respectively. Besides, the log reduction at 10 µM in the data set on VEEV came to 1; in the data set on CHIKV it was 6.28.

For the compound `COc1[nH]c(=O)nc(OCC(=O)NC23CC4CC(CC(C4)C2)C3)c1F` [compound 46, N-(adamantan-1-yl)-2-((5-fluoro-6-methoxy-2-oxo-1,2-dihydropyrimidin-4-yl)oxy)acetamide], the EC50 (in the data set on VEEV (TC-83); in data set [1]) was over 40 µM throughout. The same compound showed a CC50 in “in vitro” of over 40 µM. Moreover, the EC90 in the data set with VEEV and in the data set with CHIKV was over 10 µM throughout. The values for the log reduction at 10 µM with VEEV and with CHIKV were 0 and 0.42, respectively.

Turning to `Cc1cc(OCC(=O)NC23CC4CC(CC(C4)C2)C3)nc(=O)[nH]1` [compound 9, N-(Adamantan-1-Yl)-2-((6-Methyl-2-Oxo-1,2-Dihydropyrimidin-4-Yl)Oxy)Acetamide], the results for the EC50 (with VEEV (TC-83); in data set [1]) were 20 µM and 1.2 µM, respectively. In the data set “in vitro”, this compound showed a CC50 of over 40 µM. Moreover, the EC90 stood at 1.1 µM with VEEV and 3.5 µM in the data set with CHIKV. Moreover, the log reduction at 10 µM with VEEV turned out to be 1.37; with CHIKV, 1.81.

Regarding `O=C(COc1nc(=O)[nH]cc1F)NC1C2CC3CC(C2)CC1C3` (centres unmarked) [compound 27, N-(Adamantan-2-Yl)-2-((5-Fluoro-2-Oxo-1,2-Dihydropyrimidin-4-Yl)Oxy)Acetamide], the EC50 in the data set with VEEV (TC-83) is over 40 µM; in data set [1] it was 32.5 µM. This compound also yielded a CC50 in the data set “in vitro” of over 40 µM. For the same compound, the EC90 worked out at 10 µM with VEEV and 8.75 µM in the data set on CHIKV. The values for the log reduction at 10 µM in the data set on VEEV and in the data set with CHIKV were 0 and 1.31, respectively.

With `O=C(COc1nc(=O)[nH]cc1Cl)NC12CC3CC(CC(C3)C1)C2` [compound 28, N-(Adamantan-1-Yl)-2-((5-Chloro-2-Oxo-1,2-Dihydropyrimidin-4-Yl)Oxy)Acetamide], the EC50 is over 40 µM in the data set on VEEV (TC-83) and 33.4 µM in data set [1]. Also, the CC50 in the data set “in vitro” is over 40 µM. Moreover, the results for the EC90 in the data set on VEEV and in the data set on CHIKV were over 10 µM and 10 µM, respectively. The log reduction at 10 µM with VEEV was 0.71; with CHIKV, 1.6.

As to `O=C(COc1cc(OC2CC2)[nH]c(=O)n1)NC12CC3CC(CC(C3)C1)C2` [compound 48, N-(Adamantan-1-Yl)-2-((6-Cyclopropoxy-2-Oxo-1,2-Dihydropyrimidin-4-Yl)Oxy)Acetamide], the EC50 in the data set with VEEV (TC-83) stood at 3.77 µM; in data set [1], 0.283 µM. Also, the CC50 in the data set “in vitro” was over 40 µM. In addition, the EC90 in the data set with VEEV worked out at 0.65 µM; with CHIKV it was 0.06 µM. The log reduction at 10 µM with VEEV was 3.28; with CHIKV, 5.51.

On to `O=C(COc1nc(=O)[nH]c(N2C3CCC2COC3)c1F)NC12CC3CC(CC(C3)C1)C2` [compound 34, 2-((6-(3-Oxa-8-Azabicyclo[3.2.1]Octan-8-Yl)-5-Fluoro-2-Oxo-1,2-Dihydropyrimidin-4-Yl)Oxy)-N-(Adamantan-1-Yl)Acetamide], for which the figures for the EC50 (in the data set on VEEV (TC-83); in data set [1]) were 22.5 µM and 1.02 µM, respectively. In addition, in the data set “in vitro”, the CC50 is over 40 µM. Further, the values for the EC90 with VEEV and in the data set with CHIKV were 5 µM and 0.19 µM, respectively. For the same compound, the log reduction at 10 µM amounted to 1.97 in the data set on VEEV and 6.13 in the data set with CHIKV.

For the compound `CC(C)Oc1cc(OCC(=O)NC23CC4CC(CC(C4)C2)C3)nc(=O)[nH]1` [compound 45, N-(Adamantan-1-Yl)-2-((6-Isopropoxy-2-Oxo-1,2-Dihydropyrimidin-4-Yl)Oxy)Acetamide], the figures for the EC50 (in the data set with VEEV (TC-83); in data set [1]) were 8.95 µM and 0.429 µM, respectively. The compound further gave a CC50 in “in vitro” of over 40 µM. Further, the EC90 was found to be 0.98 µM with VEEV and 0.08 µM in the data set with CHIKV. Besides, the log reduction at 10 µM in the data set on VEEV amounted to 2.62; with CHIKV it was 5.58.

Consider `O=C(COc1cc(C2CCCC2)[nH]c(=O)n1)NC12CC3CC(CC(C3)C1)C2` [compound 13, N-(Adamantan-1-Yl)-2-((6-Cyclopentyl-2-Oxo-1,2-Dihydropyrimidin-4-Yl)Oxy)Acetamide], for which the EC50 in the data set with VEEV (TC-83) was 17.4 µM; in data set [1], 1.24 µM. In the data set “in vitro”, this compound displayed a CC50 of over 40 µM. In addition, the EC90 in the data set on VEEV amounted to 4.5 µM; in the data set on CHIKV it was 0.04 µM. Besides, the figures for the log reduction at 10 µM in the data set on VEEV and in the data set with CHIKV were 1.94 and 5.93, respectively.

Consider `N#Cc1ccc(-c2cc(OCC(=O)NC34CC5CC(CC(C5)C3)C4)nc(=O)[nH]2)cc1` [compound 17, N-(Adamantan-1-Yl)-2-((6-(4-Cyanophenyl)-2-Oxo-1,2-Dihydropyrimidin-4-Yl)Oxy)Acetamide], for which the EC50 (with VEEV (TC-83); in data set [1]) was over 40 µM throughout. This compound also showed a CC50 in the data set “in vitro” of over 40 µM. In addition, the EC90 is 9.8 µM in the data set with VEEV and over 40 µM in the data set with CHIKV. For the same compound, the log reduction at 10 µM in the data set with VEEV turned out to be 3.69; with CHIKV, 1.59.

In the case of `O=C(COc1cc(-c2ccccc2)[nH]c(=O)n1)NC12CC3CC(CC(C3)C1)C2` [compound 15, N-(Adamantan-1-Yl)-2-((2-Oxo-6-Phenyl-1,2-Dihydropyrimidin-4-Yl)Oxy)Acetamide], the EC50 with VEEV (TC-83) was 20.8 µM; in data set [1] it was 1.47 µM. Further, the CC50 in the data set “in vitro” was over 40 µM. Besides, the concentration for an effect of 90% (EC90) was 2.02 µM with VEEV and 2.7 µM with CHIKV. Moreover, the results for the log reduction at 10 µM in the data set on VEEV and with CHIKV were 3.25 and 8.93, respectively.

One may read the EC50 as the midpoint of the concentration-response curve. One may read the EC90 as the point of the concentration-response curve where the effect stands at 90%.
